Assay results published in article PMC10698194 (Nature Communications, 2023).
“And” between values parts separate entries of the source, which are not always exact repeats. Equal values may be shown once. Read-outs that look alike come from different tables or passages of the source. Bridge positions count the residues as written; N and C are the ends. Square brackets hold non-standard residues; d marks the D form. Peptide text beside a SMILES is read from it. * marks the point of attachment. X1 = C=CCN1CC[C@]23c4c5ccc(O)c4O[C@H]2[C@H](N*)CC[C@@]3(O)[C@H]1C5

Assays:
human KOR D138A = target: T1, human KOR D138A (Homo sapiens, UniProt P41145, D138A); test: cAMP inhibition assay normalized to salvinorin A; format: cell-based
T1 construct: expressed in transfected cells
T1 sequence (P41145 whole entry D138A): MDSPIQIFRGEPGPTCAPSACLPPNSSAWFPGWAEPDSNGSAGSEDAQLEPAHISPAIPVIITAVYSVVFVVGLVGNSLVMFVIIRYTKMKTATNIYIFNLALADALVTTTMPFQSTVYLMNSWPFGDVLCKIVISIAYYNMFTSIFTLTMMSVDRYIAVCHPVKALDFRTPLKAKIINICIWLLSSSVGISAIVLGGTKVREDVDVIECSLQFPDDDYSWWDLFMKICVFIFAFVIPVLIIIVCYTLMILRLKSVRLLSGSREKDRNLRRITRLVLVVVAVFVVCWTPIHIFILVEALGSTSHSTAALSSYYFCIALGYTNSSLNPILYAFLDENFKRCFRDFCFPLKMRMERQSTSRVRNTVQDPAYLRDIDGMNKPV

human KOR E209A = target: T2, human KOR E209A (Homo sapiens, UniProt P41145, E209A); format: cell-based; conditions: KOR(E209A), Log [drug], individual replicates
T2 construct: FLAG; expressed in transfected cells; host or cells: HEK293 / HEK293T, transient
T2 sequence (P41145 whole entry E209A): as the sequence (P41145 whole entry D138A) above, with A138D, E209A counted along it

human KOR E297A [1] = target: T3, human KOR E297A (Homo sapiens, UniProt P41145, E297A); format: cell-based; conditions: KOR(E297A), Log [drug], individual replicates
T3 construct: FLAG; expressed in transfected cells; host or cells: HEK293T
T3 sequence (P41145 whole entry E297A): as the sequence (P41145 whole entry D138A) above, with A138D, E297A counted along it

human KOR L309A = target: T4, human KOR L309A (Homo sapiens, UniProt P41145, L309A); format: cell-based; conditions: KOR(L309A), Log [drug], individual replicates
T4 construct: FLAG; expressed in transfected cells; host or cells: HEK293T
T4 sequence (P41145 whole entry L309A): as the sequence (P41145 whole entry D138A) above, with A138D, L309A counted along it

human KOR E297A [2] = target: T3, human KOR E297A; test: BRET β-arrestin-2 biosensor assay; format: cell-based; conditions: KOR(E297A), Log [drug], individual replicates
mouse KOR, Gαi2 = target: T5, mouse KOR, Gαi2 (Mus musculus, UniProt P33534); test: TRUPATH BRET G protein assay, Gαi2; format: cell-based
T5 construct: expressed in transfected cells; host or cells: HEK293T (ATCC, CRL-3216), transient
T5 sequence (P33534 whole entry): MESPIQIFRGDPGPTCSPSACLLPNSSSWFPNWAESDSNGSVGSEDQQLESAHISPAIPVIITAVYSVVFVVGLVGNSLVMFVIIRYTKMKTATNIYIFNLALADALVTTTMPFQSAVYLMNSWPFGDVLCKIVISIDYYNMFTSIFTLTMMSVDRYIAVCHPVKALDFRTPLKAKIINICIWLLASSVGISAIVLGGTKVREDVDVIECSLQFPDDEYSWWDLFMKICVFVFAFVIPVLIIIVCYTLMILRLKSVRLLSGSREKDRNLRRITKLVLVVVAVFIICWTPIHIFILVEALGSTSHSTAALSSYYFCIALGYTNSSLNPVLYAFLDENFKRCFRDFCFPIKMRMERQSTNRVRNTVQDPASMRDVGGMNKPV

human KOR [3] = target: T6, human KOR (Homo sapiens, UniProt P41145); test: cell-based; design: expressed in transfected cells; host or cells: HEK293, transient
T6 sequence (P41145 whole entry): as the sequence (P41145 whole entry D138A) above, with A138D counted along it

human MOR = target: T7, human MOR (Homo sapiens, UniProt P35372); test: [35S]GTPγS binding assay, CHO membranes; format: biochemical
T7 construct: expressed in transfected cells
T7 sequence (P35372 whole entry): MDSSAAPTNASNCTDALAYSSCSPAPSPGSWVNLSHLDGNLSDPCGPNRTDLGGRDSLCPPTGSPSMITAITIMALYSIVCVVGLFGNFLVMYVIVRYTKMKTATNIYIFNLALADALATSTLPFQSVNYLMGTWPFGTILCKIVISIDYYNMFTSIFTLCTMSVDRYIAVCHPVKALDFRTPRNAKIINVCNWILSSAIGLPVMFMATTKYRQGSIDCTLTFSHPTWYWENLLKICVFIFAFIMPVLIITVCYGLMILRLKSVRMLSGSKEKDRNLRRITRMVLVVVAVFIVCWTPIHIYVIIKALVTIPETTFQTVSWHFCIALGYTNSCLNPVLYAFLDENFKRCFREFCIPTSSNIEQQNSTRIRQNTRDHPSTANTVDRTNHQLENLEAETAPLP

human DOR = target: T8, human DOR (Homo sapiens, UniProt P41143); test: [35S]GTPγS binding assay, CHO membranes; format: biochemical
T8 construct: expressed in transfected cells
T8 sequence (P41143 whole entry): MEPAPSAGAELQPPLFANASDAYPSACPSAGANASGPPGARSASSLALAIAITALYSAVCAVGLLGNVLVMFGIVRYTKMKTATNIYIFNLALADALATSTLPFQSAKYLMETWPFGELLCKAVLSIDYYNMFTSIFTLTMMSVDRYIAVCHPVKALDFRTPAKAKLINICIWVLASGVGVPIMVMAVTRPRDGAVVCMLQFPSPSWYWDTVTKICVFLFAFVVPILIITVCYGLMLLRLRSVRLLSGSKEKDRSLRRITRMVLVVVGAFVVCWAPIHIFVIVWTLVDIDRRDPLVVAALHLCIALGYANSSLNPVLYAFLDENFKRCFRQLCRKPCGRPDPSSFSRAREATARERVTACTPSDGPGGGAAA

mouse KOR [4] = target: T9, mouse KOR (Mus musculus, UniProt P33534); test: biochemical; format: binding; design: expressed in transfected cells; conditions: for specific [3H]DPN binding, normalized to 100%: replicates
Target sequence in this assay (P33534 whole entry): as the sequence (P33534 whole entry) above

mouse KOR [5] = target: T9, mouse KOR; test: cell-based; design: expressed in transfected cells
Target sequence in this assay (P33534 whole entry): as above

human KOR [6] = target: T6, human KOR; test: [35S]GTPγS binding assay, CHO membranes; format: biochemical; design: expressed in transfected cells; conditions: for stimulation of [35S]GTPγS binding, normalized: replicates
mouse KOR [7] = target: T9, mouse KOR; test: cell-based; design: expressed in transfected cells; host or cells: HEK293T, transient; conditions: for β-arrestin-2 recruitment, normalized: replicates
Target sequence in this assay (P33534 whole entry): as above
Target sequence in this assay (P32121 whole entry partner): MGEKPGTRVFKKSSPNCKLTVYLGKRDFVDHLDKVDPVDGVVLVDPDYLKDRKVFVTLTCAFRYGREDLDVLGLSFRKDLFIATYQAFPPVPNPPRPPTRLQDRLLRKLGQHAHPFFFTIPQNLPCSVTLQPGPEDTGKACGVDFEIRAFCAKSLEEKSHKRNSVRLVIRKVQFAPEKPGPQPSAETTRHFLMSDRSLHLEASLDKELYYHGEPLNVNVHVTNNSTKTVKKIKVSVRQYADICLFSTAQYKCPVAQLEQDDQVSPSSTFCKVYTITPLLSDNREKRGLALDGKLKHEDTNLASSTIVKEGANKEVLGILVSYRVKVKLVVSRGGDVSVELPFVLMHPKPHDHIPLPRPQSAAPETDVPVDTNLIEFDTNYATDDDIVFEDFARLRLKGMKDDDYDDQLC

C=CCN1CC[C@]23c4c5ccc(O)c4O[C@H]2[C@H](NC(=O)[C@@H](Cc2ccccc2)NC(=O)[C@@H](NC(=O)[C@@H]2CSCC(=O)N[C@@H](Cc4ccc(O)cc4)C(=O)N[C@@H](C)C(=O)N[C@H](Cc4ccc(O)cc4)C(=O)N[C@@H]([C@@H](C)O)C(=O)N[C@@H]([C@@H](C)O)C(=O)N2)[C@@H](C)O)CC[C@@]3(O)[C@H]1C5 [DNCP-βNalA(1)] ({CH2CO}-YA[dY]TTCT[dF]-X1; thioether N-6)
response at D138A, Figure S26 (human KOR D138A; Log [ligand] (M) -5): 110.03 and 108.68 and 121.152 and 120.937 and 117.964 and 108.941 and 117.457
response at D138A, Figure S26 (human KOR D138A; Log [ligand] (M) -6): 96.1567 and 103.986 and 100.687 and 108.287 and 104.111 and 103.774 and 93.2795 and 106.739
response at D138A, Figure S26 (human KOR D138A; Log [ligand] (M) -7): 95.0352 and 99.2926 and 97.756 and 110.621 and 103.099 and 111.681 and 84.8048 and 93.7365
response at D138A, Figure S26 (human KOR D138A; Log [ligand] (M) -8): 92.5638 and 91.2347 and 98.8959 and 103.021 and 118.301 and 103.099 and 100.466 and 95.1074
response at D138A, Figure S26 (human KOR D138A; Log [ligand] (M) -9): 68.4109 and 66.6248 and 86.0309 and 72.0259 and 98.5019 and 110.7 and 66.4429 and 85.6772
Gi1-activation (human KOR E209A; M = -6): 95.0321
Gi1-activation (human KOR E209A; M = -7): 98.4538 and 95.0321 and 92.9731 (2×)
Gi1-activation (human KOR E209A; M = -9): 93.8915 and 90.4927
Gi1-activation (human KOR E297A [1]; M = -5): 95.0144
Gi1-activation (human KOR E297A [1]; M = -6): 93.9606 and 93.3336 and 93.3709
Gi1-activation (human KOR E297A [1]; M = -7): 92.7066 and 94.3563
Gi1-activation (human KOR E297A [1]; M = -8): 92.7066 and 93.9606 and 93.6983
Gi1-activation (human KOR L309A; M = -5): 98.4884 and 94.3563
Gi1-activation (human KOR L309A; M = -6): 92.9882 and 93.5382 and 87.9287
Gi1-activation (human KOR L309A; M = -7): 91.3288 and 89.81 and 94.9619
Gi1-activation (human KOR L309A; M = -8): 94.9619 and 94.0882
βarrestin2-reruitment (human KOR E297A [2]; M = -5): 64.952 and 70.3776 and 70.3029
βarrestin2-reruitment (human KOR E297A [2]; M = -6): 64.952 (2×) and 65.8365 and 61.2954 and 65.7763 and 64.7423
βarrestin2-reruitment (human KOR E297A [2]; M = -7): 57.4606 and 53.3486 and 51.3006 and 53.3686 and 55.3202
βarrestin2-reruitment (human KOR E297A [2]; M = -8): 54.25 and 56.7544 and 54.4026 and 55.3202
βarrestin2-reruitment (human KOR E297A [2]; M = -9): 42.4779 and 34.0491 and 29.508 and 29.5871 and 25.4512 and 32.8461
βarrestin2-reruitment (human KOR E297A [2]; M = -10): 4.532 and 6.8027 and 4.772

CC(C)=CCN1CCC2(C)c3cc(O)ccc3CC1C2C (centres unmarked) [Pentazocine, pentazocine]
Gαi2, normalized response (single replicate values) (mouse KOR, Gαi2; Log [ligand] (M) -5): 63.0631 and 33.772 and 78.2944 and 66.7992 and -8.535 and 43.2571 and 15.0067 and 36.1153
Gαi2, normalized response (single replicate values) (mouse KOR, Gαi2; Log [ligand] (M) -6): 81.8094 and 43.1452 and 67.7496 and 22.5401 and 66.7992 and 32.8986 (2×) and 41.9735
Gαi2, normalized response (single replicate values) (mouse KOR, Gαi2; Log [ligand] (M) -7): 33.772 (2×) and 29.0855 and 9.357 and 40.4321 and 39.4904 and 59.2657 and 49.0034
Gαi2, normalized response (single replicate values) (mouse KOR, Gαi2; Log [ligand] (M) -8): 36.1153 and 16.1974 and 29.0855 and -23.6023 and 39.4904 and 26.3069 and 33.8403 and 44.3168
Gαi2, normalized response (single replicate values) (mouse KOR, Gαi2; Log [ligand] (M) -9): -10.7504 and 16.1974 and 32.6004 and -17.0105 and 12.1816 and 27.2485 and 41.3738 and 15.0258
Gαi2, normalized response (single replicate values) (mouse KOR, Gαi2; Log [ligand] (M) -10): -1.377 and -15.4369 and -0.06023 (2×) and -7.594 and -5.71 and -13.0937
Gαi2, normalized response (single replicate values) (mouse KOR, Gαi2; Log [ligand] (M) -11): -3.721 and -2.549 and 15.0258 and 1.823 and -26.4273 and -45.2609 and 40.4321 and -15.4369
Gαi2, normalized response (single replicate values) (mouse KOR, Gαi2; Log [ligand] (M) -12): 20.884 and 5.653 and -14.2653 and 5.59 and 13.1233 and -22.6606 and 37.607 and -1.377
Gαi2 (Figure 3j) (mouse KOR, Gαi2; source data of Figure 3j, U50,488 about 100): 42.2346
EC50 (human KOR [3]): 1010 nM
β-arrestin-2 (Figure 3j) (human KOR [3]): 38
Emax (human KOR [3]; HEK293, read-out: Emax β-arrestin-1 recruitment): 38 ± 24%

C=CCN1CC[C@]23c4c5ccc(O)c4O[C@H]2[C@H](N)CC[C@@]3(O)[C@H]1C5 [β-NalA, β-naloxamine]
agonist response at MOR, Figure S13a (human MOR; Log [ligand] (M) -9): 0.0
EC50 (M) MOR (human MOR; [35S]GTPγS): no stimulation up to 10 µM
agonist response at DOR, Figure S13b (human DOR; Log [ligand] (M) -5): 29.5 and 25.6
agonist response at DOR, Figure S13b (human DOR; Log [ligand] (M) -5.5): 26.4 and 22
agonist response at DOR, Figure S13b (human DOR; Log [ligand] (M) -6.5): 11.6 and 22.3
agonist response at DOR, Figure S13b (human DOR; Log [ligand] (M) -7): 11.8 and 10.9 and 6.8
EC50 (M) DOR (human DOR; [35S]GTPγS): no stimulation up to 10 µM
Ki (mouse KOR [4]): 72 nM
specific [3H]DPN binding, normalized to 100% (mouse KOR [4]; Log [ligand] (M) -5): 4.737 and -0.7945 and 2.618
specific [3H]DPN binding, normalized to 100% (mouse KOR [4]; Log [ligand] (M) -5.5): 7.624 and 1.593 and 6.477
specific [3H]DPN binding, normalized to 100% (mouse KOR [4]; Log [ligand] (M) -6): 15.6906 and 8.934 and 15.8979
specific [3H]DPN binding, normalized to 100% (mouse KOR [4]; Log [ligand] (M) -6.5): 35.1232 and 21.428 and 37.6169
specific [3H]DPN binding, normalized to 100% (mouse KOR [4]; Log [ligand] (M) -7): 55.6281 and 51.2816 and 59.6036
specific [3H]DPN binding, normalized to 100% (mouse KOR [4]; Log [ligand] (M) -7.5): 78.1171 and 80.8645 and 81.4583
specific [3H]DPN binding, normalized to 100% (mouse KOR [4]; Log [ligand] (M) -8): 95.8025 and 95.1499 and 93.7293
specific [3H]DPN binding, normalized to 100% (mouse KOR [4]; Log [ligand] (M) -8.5): 97.8462 and 101.481 and 96.8345
specific [3H]DPN binding, normalized to 100% (mouse KOR [4]; Log [ligand] (M) -9): 98.6307 and 97.8789 and 97.5636
specific [3H]DPN binding, normalized to 100% (mouse KOR [4]; Log [ligand] (M) -9.5): 100
EC50 (mouse KOR [5]): 130 nM
Emax (mouse KOR [5]; HEK-293T, read-out: Emax cAMP assay): 61%
EC50 (human KOR [6]): 150 nM
Emax (human KOR [6]): 22%
stimulation of [35S]GTPγS binding, normalized (human KOR [6]; Log [ligand] (M) -5): 26.3 and 15.7 and 17.2
stimulation of [35S]GTPγS binding, normalized (human KOR [6]; Log [ligand] (M) -6): 26.7 and 25.9 and 13
stimulation of [35S]GTPγS binding, normalized (human KOR [6]; Log [ligand] (M) -6.5): 25.5 and 13.8
stimulation of [35S]GTPγS binding, normalized (human KOR [6]; Log [ligand] (M) -7): 15.4 and 11.8 and 3.2
stimulation of [35S]GTPγS binding, normalized (human KOR [6]; Log [ligand] (M) -7.5): 4.1
stimulation of [35S]GTPγS binding, normalized (human KOR [6]; Log [ligand] (M) -8): 17.5 and 5.8 and 1.8
stimulation of [35S]GTPγS binding, normalized (human KOR [6]; Log [ligand] (M) -8.5): 4
stimulation of [35S]GTPγS binding, normalized (human KOR [6]; Log [ligand] (M) -9): 20.6 and 20.7 and 0
stimulation of [35S]GTPγS binding, normalized (human KOR [6]; Log [ligand] (M) -10): 8.5 and 3.1 and 0.3
stimulation of [35S]GTPγS binding, normalized (human KOR [6]; Log [ligand] (M) -11): 8.8 and 6 and 1
stimulation of [35S]GTPγS binding, normalized (human KOR [6]; Log [ligand] (M) -12): 2
EC50 (mouse KOR [7]): 15 nM
β-arrestin-3 (Figure 3j) (mouse KOR [7]): 50.66
Emax (mouse KOR [7]; HEK-293T, read-out: Emax β-arrestin-2 recruitment): 51%
β-arrestin-2 recruitment, normalized (mouse KOR [7]; Log [ligand] (M) -5): 75.0642 and 33.7213 and 53.9146
β-arrestin-2 recruitment, normalized (mouse KOR [7]; Log [ligand] (M) -6): 47.1252 and 26.1295 and 56.8071
β-arrestin-2 recruitment, normalized (mouse KOR [7]; Log [ligand] (M) -7): 55.6969 and 39.8004 and 43.7179
β-arrestin-2 recruitment, normalized (mouse KOR [7]; Log [ligand] (M) -8): 23.8448 and 3.34 and 20.2841
β-arrestin-2 recruitment, normalized (mouse KOR [7]; Log [ligand] (M) -9): 18.9925 and 16.6241
β-arrestin-2 recruitment, normalized (mouse KOR [7]; Log [ligand] (M) -10): 9.149 and -15.1009 and 26.0906

DAMGO
Emax (%) MOR (human MOR; relative to DAMGO): 100%
